Results published in patent US5047533A, “Acyclic purine phosphonate nucleotide analogs” (SRI International, priority 1990, dated 1991).
≈ marks a conversion by molar mass, not a printed value. Like-named read-outs stand apart in the source and are kept apart here.

Tests used:
[1] = tested on: human cytomegalovirus (strain AD169); assay: Plaque reduction, human cytomegalovirus; assay type: cell-based
Method: (§1) One herpes virus strain employed was Strain McCrae of type 1 herpes (thymidine kinase positive virus) (HSV-1TK^+). This strain was prepared and titered in MA-104 cells and frozen at -90° C. until use. Also used were strain HF (HSV-1TK^-). Strain E194 (HSV-2), NJB strain (MCMV), strain AD169 (HCMV).
^a 50% effective dose, determined from plot of data.
(§2) The data on acyclovir were gathered from tests run in MRC-5 cells grown under agarose overlay, with plaques read 7 days after virus exposure.

HSV-1TK+ = assay: In vivo guinea pig HSV-1TK+ lesion test, topical solution; conditions: guinea pigs; 5% solution of acyclovir; five days after treatment
Method: Compound 2 also was tested in vivo in guinea pigs as an agent against HSV-1TK^+. The animals were inoculated with the virus; 18 hours later Compound 2 at two concentrations (0.4% and 1-2% (saturated) solution in water) was administered, and five days later blister diameters at the point of inoculation were measured. A 5% solution of acyclovir or a 1.4% solution of poly(vinylalcohol) was used as control. Satellite lesions were measured, as well.

[2] = Cytotoxicity (maximum tolerated dose), control tests in 96-well microplates; assay type: cell-based; conditions: Table 5; microscopic examination, separately run control tests; read-out: Approx. MTD (dose causing approximately 50% cytotoxic effects in cells)
Text: (§3) ^b Maximum tolerated dose: That dose causing approximately 50%
(§4) cytotoxic effects in cells, determined by the microscopic examination of
(§5) cells for sloughing, shape alteration, and granularity in separately run
(§6) control tests in 96well microplates.
as §2

[3] = tested on: HSV-1TK+ (Strain McCrae of type 1 herpes); assay: Inhibition of viral CPE, HSV-1TK+ in MA-104 cells; assay type: cell-based; conditions: for inhibition at 1 µg/mL: 1.0 μg/ml; for inhibition at 3.2 µg/mL: 3.2 μg/ml; for inhibition at 10 µg/mL: 10 μg/ml; for inhibition at 100 µg/mL: 100 μg/ml; for inhibition at 320 µg/mL: 320 μg/ml; for inhibition at 1000 µg/mL: 1000 μg/ml
Method: as §1
(§7) Continuous passaged monkey kidney (MA-104) cells were used for testing of herpes-type virus, with growth medium consisting of Minimum Essential Medium (MEM) supplemented with 0.1% NaHCO3 and […] gentamicin.
(§8) To a 96 well microtiter plate containing an established 24 hour monolayer of cells from which the medium has been decanted was added 0.1 ml of varying (one-half log10) concentrations of test compound, which incubated on the cell 15 minutes, after which 0.1 ml of virus in a concentration of 320 cell culture 50% infectious doses (CCID50)/0.1 ml was added. The plate was covered with plastic wrap and incubated at 37° C. Included with the test were toxicity controls (each concentration of compound+test medium in place of virus), virus controls (virus+test medium in place of compound) and cell controls (test medium in place of compound and virus). The cells were examined microscopically after 72 hours for evidence of cytotoxicity and for viral cytopathic effect (CPE). Vidarabine was run on the same plate in parallel. The test compounds were added to the medium at a concentration of 2000 μg/ml for use as a positive control.
Antiviral activity was determined by observation of inhibition of viral CPE. This activity was expressed by ED50, defined as that dose range of compound causing 50% CPE inhibition.
A Virus Rating (VR) was also determined. VR is a numerical expression of antiviral activity, weighted to take into account any cytotoxicity observed, as discussed by Sidewell et al, Appl Microbiol (1971) 22:797. Generally, a VR of 0.1-0.4 indicates slight antiviral effect, 0.5-0.9 indicates moderate antiviral effect, and ≥1.0 indicates strong antiviral effect.

murine CMV (NJB strain) = assay: Inhibition of viral CPE, murine CMV; assay type: cell-based
Method: as §1, §7
as §8, with “Vidarabine was run on the same plate in parallel. The test compounds were added to the medium at a concentration of 2000 μg/ml for use as a positive control.” left out
(§9) Antiviral activity was determined by observation of inhibition of viral CPE. […]
A Virus Rating (VR) was also determined. […]

[4] = tested on: reverse transcriptase (RT) from Moloney murine leukemia virus (MMLV) or avian myeloblastosis virus (AMV); assay: Reverse transcriptase assay; assay type: biochemical; conditions: 8 mM concentration
Method: For the reverse transcriptase assay, cloned reverse transcriptase (RT) (Bethesda Research Laboratories) from Moloney murine leukemia virus (MMLV) or avian myeloblastosis virus (AMV) (Seikagaku or Boehringer Mannheim) was used to direct DNA synthesis from a polyribonucleotide template and a oligodeoxynucleotide primer under reaction conditions (Houts, G. E., et al, J Virol (1979) 29:517.)
Reaction mixtures (100 μl) for the assay of MMLV RT consisted of 50 mM Tris-hydrochloride, pH 8.0, 6 mM MgCl2, 40 mM KCl, 100 μg bovine serum albumin per ml, 1 mM dithiothreitol, 0.1 mM polyadenylic acid (Pharmacia, Inc.), 0.1 mM oligo(dT)12-18 (Pharmacia, Inc.), 0.4 mM deoxythymidine triphosphate (dTTP), and 0.1 mM tritiated (93.5 Cl/mmol) dTTP (New England Nuclear). The compounds assayed were added in various concentrations and dilutions at a volume of 10 μl. Results were confirmed by duplicate assays. Dilutions were made using 10% aqueous DMSO. The total activity was measured by spotting on dry Whatman 3 mm filter disks and radioactivity was determined by liquid scintillation techniques. The assay time course was begun by adding 10 units of RT from MMLV or AMV and incubating the reaction at 37° C. […] Disks were dried under a heat lamp and the acid-insoluble product radioactivity was determined by liquid scintillation counting. […]

HIV = assay: Antiviral activity versus HIV in lymphoblastoid cells; assay type: cell-based; conditions: Human immunodeficiency virus 1, Lymphoblastoid cell; read-out: ED50 against HIV
Method: The compounds of the invention were evaluated in vitro as antiviral agents against herpes virus and against RNA retrovirus. Various herpes strains were used. An infected B lymphoblastoid cell line was used as HIV substrate to test antiviral activity with respect to RNA retrovirus.
To test antiviral activity versus HIV, the following procedure was used: Infectious HIV was assayed in cell culture as described originally by Barre-Sinoussi et al for isolation of LAV, except that persistently infected lymphoblastoid cells were used instead of mononuclear cells from anti-LAV negative donors. HIV obtained from cell culture was stored in liquid nitrogen in aliquots of RPMI 1640 culture medium with 20% of total calf serum and 20% glycerol and containing 1,000 TCID-50 HIV. The lymphoblastoid cells (10^6) were incubated with 1,000 TCID-50 of HIV obtained from cell cultures, and cells were then cultured in RPMI-1640 medium. Culture medium was changed every 3 days for 3 weeks and the medium for each 3-day period from Day 6 through Day 21 was assayed for viral reverse transcriptase activity by concentrating (pelleting) virus by ultracentrifugation in the 100 place Spinco 25 rotor and assaying pellets for reverse transcriptase (RT) using a ^32 P-dTTP in the presence of dimer-template poly rA-oligo dT. […]

HSV-2 (Strain E194) = assay: Inhibition of viral CPE, HSV-2; assay type: cell-based
Method: as §1, §7
as §8, with “The test compounds were added to the medium at a concentration of 2000 μg/ml for use as a positive control.” left out
as §9

cells = assay: Cytotoxicity (maximum tolerated dose), control tests in 96-well microplates; assay type: cell-based; conditions: overall, Table 5
Text: as §3, §4, §5, §6, §2

[5] = MA104, read-out: CPE Inhib., Table 2
[6] = MA104, read-out: CPE Inhib., Table 3 Test 1
[7] = MA104, read-out: CPE Inhib., Table 3 Test 2

For `Nc1nc2c(ncn2COCCO)c(=O)[nH]1` [Acyclovir, 9-(2-hydroxyethoxymethyl) guanine, reference compound], the “No. Plaques” value ([1]; Experiment No. 1, 32 μg/ml) was 7, the “No. Plaques” value ([1]; Experiment No. 1, 100 μg/ml) was 1 and the “No. Plaques” value ([1]; Experiment No. 2, 10 μg/ml) was 20. The “No. Plaques” value ([1]; Experiment No. 2, 32 μg/ml) was 8, the “No. Plaques” value ([1]; Experiment No. 2, 100 μg/ml) was 1 and the “Approx. ED50” value ([1]; Experiment No. 2, determined from plot of data) was 10 to 32 µg/mL. The inhibition at 32 µg/mL ([1]; Human betaherpesvirus 5, AD169, Experiment No. 1, 32 μg/ml, read-out: % Reduct.) was 59%, the inhibition at 100 µg/mL ([1]; Human betaherpesvirus 5, AD169, Experiment No. 1, 100 μg/ml, read-out: % Reduct.) was 94% and the inhibition at 10 µg/mL ([1]; Human betaherpesvirus 5, AD169, Experiment No. 2, 10 μg/ml, read-out: % Reduct.) was 9%. For the same compound, the inhibition at 32 µg/mL ([1]; Human betaherpesvirus 5, AD169, Experiment No. 2, 32 μg/ml, read-out: % Reduct.) was 64%, the inhibition at 100 µg/mL ([1]; Human betaherpesvirus 5, AD169, Experiment No. 2, 100 μg/ml, read-out: % Reduct.) was 96% and the EC50 ([1]; Human betaherpesvirus 5, AD169, Experiment No. 1, determined from plot of data, read-out: Approx. ED50) was 10 to 32 µg/mL (≈ 44.4 to 142 µM). For the same compound, the “TK+ (average number of lesions)” value (HSV-1TK+) was 1.0 and the CC50 [2] was roughly 1000 µg/mL (≈ 4440 µM).

For `Nc1nc2c(ncn2COCCCP(=O)(O)O)c(=O)[nH]1` [Compound 1, 9-(3'-phosphono-1'-propoxymethyl)guanine], the “activity against HSV-1TK+ relative to vidarabine” value [3] was “comparable to that of vidarabine”, the “VR (Virus Rating)” value ([3]; additional tests against HSV-1TK+) was 0.6 and the “activity against murine CMV” value (murine CMV (NJB strain)) was “not active”. For the same compound, the “inhibition of reverse transcriptase” value [4] was 75% and the EC50 (HIV) was 40 to 50 µg/mL (≈ 132 to 165 µM).

With `CCOP(=O)(O)CCC(CO)OCn1cnc2c(=O)[nH]c(N)nc21` (stereo not drawn) [Compound 5, 9(3'-ethylphosphono-1'-hydroxymethyl-1'-propyloxymethyl)guanine] the “effectiveness against HSV1TK+” value [3] was “mildly effective”, the “No. Plaques” value ([1]; Experiment No. 1, 32 μg/ml) was 2 and the “No. Plaques” value ([1]; Experiment No. 1, 100 μg/ml) was 1. For the same compound, the “No. Plaques” value ([1]; Experiment No. 2, 10 μg/ml) was 7, the “No. Plaques” value ([1]; Experiment No. 2, 32 μg/ml) was 3 and the “No. Plaques” value ([1]; Experiment No. 2, 100 μg/ml) was 0. The inhibition at 32 µg/mL ([1]; Human betaherpesvirus 5, AD169, read-out: % Reduct., Experiment No. 1, 32 μg/ml) was 88%, the inhibition at 100 µg/mL ([1]; Human betaherpesvirus 5, AD169, read-out: % Reduct., Experiment No. 1, 100 μg/ml) was 94% and the inhibition at 10 µg/mL ([1]; Human betaherpesvirus 5, AD169, read-out: % Reduct., Experiment No. 2, 10 μg/ml) was 68%. It also gave an inhibition at 32 µg/mL ([1]; Human betaherpesvirus 5, AD169, read-out: % Reduct., Experiment No. 2, 32 μg/ml) of 86%, an inhibition at 100 µg/mL ([1]; Human betaherpesvirus 5, AD169, read-out: % Reduct., Experiment No. 2, 100 μg/ml) of 100% and an EC50 ([1]; Human betaherpesvirus 5, AD169, read-out: Approx. ED50, Experiment No. 1, determined from plot of data) of roughly 0.1 µg/mL (≈ 0.277 µM). The EC50 ([1]; Human betaherpesvirus 5, AD169, read-out: Approx. ED50, Experiment No. 2, determined from plot of data) was roughly 3.2 µg/mL (≈ 8.86 µM), the EC50 ([1]; Human betaherpesvirus 5, AD169, read-out: ED50, human CMV) was 0.1 to 3.2 µg/mL (≈ 0.277 to 8.86 µM) and the “human CMV-inhibitory effect relative to acyclovir” value ([1]; overall, Table 5) was “more potent”. The “effectiveness against HSV-2” value (HSV-2 (Strain E194)) was “mildly effective”, the CC50 [2] was roughly 1000 µg/mL (≈ 2770 µM) and the “cytotoxicity relative to acyclovir” value (cells) was “no more cytotoxic”.

`Nc1ncnc2c1ncn2[C@@H]1O[C@H](CO)[C@@H](O)[C@@H]1O` [Vidarabine] gave an EC50 ([3]; MA104, 72 h, read-out: ED50) of 10 µg/mL (≈ 37.4 µM), an inhibition at 1 µg/mL [3, 5] of 56% and an inhibition at 3.2 µg/mL [3, 5] of 28%. For the same compound, the inhibition at 10 µg/mL [3, 5] was 69%, the inhibition at 32 µg/mL ([3]; MA104, read-out: CPE Inhib., Table 2, 32 μg/ml) was 87% and the inhibition at 100 µg/mL [3, 5] was 87%. It also gave an inhibition at 320 µg/mL [3, 5] of 100%, an inhibition at 1000 µg/mL [3, 5] of 100% and an inhibition at 1 µg/mL [3, 6] of 0%. It also gave an inhibition at 10 µg/mL [3, 6] of 60%, an inhibition at 320 µg/mL [3, 6] of 100% and an inhibition at 1000 µg/mL [3, 6] of 100%. For the same compound, the inhibition at 1 µg/mL [3, 7] was 0%, the inhibition at 3.2 µg/mL [3, 7] was 0% and the inhibition at 100 µg/mL [3, 7] was 85%. The inhibition at 320 µg/mL [3, 7] was 100%, the inhibition at 1000 µg/mL [3, 7] was 100% and the “VR (Virus Rating)” value ([3]; Table 2, HSV-1TK+) was 1.3. For the same compound, the “VR (Virus Rating)” value ([3]; Table 3 Test 1, HSV-1TK+) was 0.8 and the “VR (Virus Rating)” value ([3]; Table 3 Test 2, HSV-1TK+) was 0.7.
